# Experiments:
# TRPV3 = target: T1, TRPV3 (Mus musculus, UniProt Q8K424); experiment: Calcium imaging of TRPV3+/+ and TRPV3−/− primary keratinocytes; assay type: cell-based; set-up: endogenous in cells; host or cells: primary keratinocytes from TRPV3+/+ mouse pups (day 1-4); TRPV3-/- cells as control; details: IA 500 μM
# T1 sequence (Q8K424 1-791): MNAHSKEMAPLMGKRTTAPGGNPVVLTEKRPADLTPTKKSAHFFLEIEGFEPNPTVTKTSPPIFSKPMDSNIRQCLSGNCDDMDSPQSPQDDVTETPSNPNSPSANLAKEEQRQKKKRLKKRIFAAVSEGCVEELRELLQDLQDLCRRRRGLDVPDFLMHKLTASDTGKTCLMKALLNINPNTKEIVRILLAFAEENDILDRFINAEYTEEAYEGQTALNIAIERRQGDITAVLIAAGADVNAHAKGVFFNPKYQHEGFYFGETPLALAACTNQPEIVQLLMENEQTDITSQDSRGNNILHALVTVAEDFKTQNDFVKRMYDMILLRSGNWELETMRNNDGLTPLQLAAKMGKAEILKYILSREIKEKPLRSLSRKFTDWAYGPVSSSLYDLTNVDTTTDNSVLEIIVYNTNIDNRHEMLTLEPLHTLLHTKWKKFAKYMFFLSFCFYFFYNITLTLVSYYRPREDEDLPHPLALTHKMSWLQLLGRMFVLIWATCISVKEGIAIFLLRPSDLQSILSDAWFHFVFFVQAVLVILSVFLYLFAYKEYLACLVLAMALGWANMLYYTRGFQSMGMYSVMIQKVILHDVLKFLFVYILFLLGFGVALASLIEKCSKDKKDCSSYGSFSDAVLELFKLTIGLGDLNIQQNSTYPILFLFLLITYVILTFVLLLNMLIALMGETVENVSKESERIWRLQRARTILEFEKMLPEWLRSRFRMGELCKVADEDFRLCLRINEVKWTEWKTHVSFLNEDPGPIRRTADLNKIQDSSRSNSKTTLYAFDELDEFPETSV
# Text: HEK293 cells were transiently transfected with a rat TRPV2 plasmid using lipofectamine reagent (Invitrogen, Carlsbad, Calif.) according to manufacturer's protocol. They were then maintained in Dulbecco's modified Eagle Medium/10% fetal calf serum supplemented with Penicillin, Streptomycin, and L-glutamine. Primary keratinocytes from TRPV3-deficient and TRPV3+/+ mouse pups (day 1-4) were harvested and cultured as described previously [Chung, M. K., Lee, H., Mizuno, A., Suzuki, M. & Caterina, M. J. TRPV3 and TRPV4 mediate warmth-evoked currents in primary mouse keratinocytes. J. Biol. Chem. 279, 21569-21575 (2004)].
# Calcium imaging of TRPV3^+/+ and TRPV3^−/− keratinocytes. Primary keratinocytes from TRPV3-deficient and WT mouse pups (day 1-4) were harvested and cultured as described [Chung, M. K., Lee, H., Mizuno, A., Suzuki, M. & Caterina, M. J. TRPV3 and TRPV4 mediate warmth-evoked currents in primary mouse keratinocytes. J. Biol. Chem. 279, 21569-21575 (2004)].
# Cells were plated on glass coverslips (10^5/cm^2) and incubated for 48-60 h, then loaded with fura-2 AM (20 μM, 0.04% pleuronic acid, 32° C. for 1 h) in imaging buffer containing (in mM): 130 NaCl, 2.5 CaCl2, 0.6 MgCl2, 10 HEPES, 1.2 NaHCO3, 10 glucose, pH 7.45. Ratiometric Ca^2+ imaging was performed as previously described [O'dell, D. K., Rimmerman, N., Pickens, S. R. & Walker J. M. Fatty acyl amides of endogenous tetrahydroisoquinolines are active at the recombinant human TRPV1 receptor. Bioorg. Med. Chem. 15, 6164-6169 (2007)]. Drug was added to the bath following a period of baseline recording. Calcium measurements were made from 30 randomly selected cells per coverslip.
# Data analysis of calcium imaging data. Analysis of calcium imaging data was done using a non-linear regression curve fit (Graphpad 4 Prism, San Diego, Calif.). t tests and one way ANOVA were calculated using SPSS (Chicago, Ill.). […] Averaged drug responses over 30 randomly selected cells per coverslip were analyzed with two-tailed unpaired t tests.
# rat TRPV4 = target: T2, rat TRPV4 (Rattus norvegicus, UniProt Q9ERZ8); experiment: Calcium imaging of TRPV4 transfected HEK293 cells; assay type: cell-based; details: IA 100 μM, compared to vehicle
# T2 construct: expressed in transfected cells; host or cells: HEK293 cell line
# T2 sequence (Q9ERZ8 whole entry): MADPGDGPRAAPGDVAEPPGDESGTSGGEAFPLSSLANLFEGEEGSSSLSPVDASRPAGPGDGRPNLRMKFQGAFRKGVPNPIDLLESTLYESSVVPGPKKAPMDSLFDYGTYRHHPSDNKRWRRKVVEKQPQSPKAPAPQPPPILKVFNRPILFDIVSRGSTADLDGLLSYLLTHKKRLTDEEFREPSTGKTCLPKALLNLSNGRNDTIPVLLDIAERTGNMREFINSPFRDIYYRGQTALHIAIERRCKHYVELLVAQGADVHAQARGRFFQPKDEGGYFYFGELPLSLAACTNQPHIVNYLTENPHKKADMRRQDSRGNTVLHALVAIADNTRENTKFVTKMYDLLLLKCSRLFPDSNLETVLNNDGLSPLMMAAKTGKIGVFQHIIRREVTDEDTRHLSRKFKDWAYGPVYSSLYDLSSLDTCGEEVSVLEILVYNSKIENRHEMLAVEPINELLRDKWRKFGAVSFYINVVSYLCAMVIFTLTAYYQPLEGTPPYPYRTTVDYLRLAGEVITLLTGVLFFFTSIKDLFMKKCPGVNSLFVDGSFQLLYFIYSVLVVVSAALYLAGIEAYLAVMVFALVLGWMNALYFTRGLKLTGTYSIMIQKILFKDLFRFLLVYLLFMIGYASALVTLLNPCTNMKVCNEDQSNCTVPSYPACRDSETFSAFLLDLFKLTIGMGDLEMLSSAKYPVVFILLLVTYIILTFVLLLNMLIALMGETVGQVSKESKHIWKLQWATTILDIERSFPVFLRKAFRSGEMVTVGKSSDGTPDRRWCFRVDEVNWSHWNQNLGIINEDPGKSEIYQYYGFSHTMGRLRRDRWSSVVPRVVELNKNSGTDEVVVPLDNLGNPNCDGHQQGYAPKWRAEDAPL
# Experimental: All error bars indicate SEM; p values in all subfigures but c represent analysis with one-way ANOVA Bonferroni's post hoc.
# TRPV3-YFP [O'dell, D. K., Rimmerman, N., Pickens, S. R. & Walker J. M. Fatty acyl amides of endogenous tetrahydroisoquinolines are active at the recombinant human TRPV1 receptor. Bioorg. Med. Chem. 15, 6164-6169 (2007)], TRPV4 and mock-transfected cell lines were cultured in DMEM 1× with L-glutamine (Mediatech, Inc. Herndon, Va.), containing 1% penicillin-streptomycin (Invitrogen, Carlsbad, Calif.) and 10% foetal bovine serum.
# Calcium imaging of HEK 293 cells. TRPV1, TRPV3, and TRPV4 expressing HEK293 cells were plated 24-48 h before imaging in 96 well plates, loaded with 3 μM Fura-2 AM and imaged as previously described [O'dell, D. K., Rimmerman, N., Pickens, S. R. & Walker J. M. Fatty acyl amides of endogenous tetrahydroisoquinolines are active at the recombinant human TRPV1 receptor. Bioorg. Med. Chem. 15, 6164-6169 (2007)].
# [1] = system: locomotion and cataleptic response; experiment: Open field test and ring test; assay type: in vivo, female Sabra mice; details: i.p., Sabra mice
# Experimental: To study the functional effects of IA on the CNS, IA was assayed in a panel of standard behavioral assays in mice (female Sabra strain, 15-20 weeks old), namely: the elevated plus maze [Crawley, J. N. What's Wrong with my Mouse? Behavioral Phenotyping of Transgenic and Knockout Mice (Wiley-Liss, New York, 2000)], the Porsolt forced-swimming test [Petit-Demouliere, B., Chenu, F. & Bourin, M. Forced swimming test in mice: a review of antidepressant activity. Psychopharmacology 177, 245-255 (2005)], locomotion in the open field test and cataleptic response in a ring test [Fride, E. & Mechoulam, R. Pharmacological activity of the cannabinoid receptor agonist, anandamide, a brain constituent. Eur. J. Pharmacol. 231, 313-314 (1993). The elevated plus maze assay is based on the preference of mice for the closed arms of a maze, apparently due to fear of open spaces.
smiles,measurement,setting,value
"CC(=O)OC1CC/C(C)=C/CC/C(C)=C/CC2(C(C)C)CCC1(C)O2 (centres unmarked) [IA, incensole acetate]",calcium influx in primary keratinocytes from TRPV3−/− mice,TRPV3,not from TRPV3
same,calcium influx in primary keratinocytes from WT mice,TRPV3; camphor 10 mM,induced a calcium influx
same,calcium influx in TRPV4 transfected HEK293 cells,rat TRPV4,very modest calcium influx
same,immobility on a ring,[1],impaired immobility on a ring
same,open field behavior,[1],significant reduction of open field behavior

# Source: patent US20100099756A1, “USES OF INCENSOLE, INCENSOLE ACETATE AND DERIVATIVES THEREOF” (YISSUM RESEARCH DEVELOPMENT COMPANY OF THE HEBREW …, priority 2006, published 2010)
